Data on ten compounds can be found in PubChem BioAssay (NCI).

Some test systems named below: HOP-62 NSCLC; NCI/ADR-RES ovarian; T-47D breast; SF-539 CNS; NCI-H522 lung; OVCAR-4 ovarian; HL-60(TB) leukemia; HS 578T breast; SK-MEL-5 melanoma; UACC-62 melanoma.
Common to all, as to assay: DTP human tumour cell line panel, 48 h

Each structure is given as a SMILES string.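 Tested at 5 concentrations; 48 h exposure; 96-well plates; endpoints linearly interpolated, else capped at highest concentration. GI50: concentration for 50% inhibition of growth. TGI is the concentration that stops growth completely.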

On to `O=C(O)C1CCCN1` (stereo not drawn), for which the TGI in the assay on HOP-62 NSCLC, in the assay on NCI/ADR-RES ovarian, with T-47D breast, in the assay with SF-539 CNS, with NCI-H522 lung and with OVCAR-4 ovarian was more than 100 µM in each case. Moreover, the TGI in the assay on HL-60(TB) leukemia, in the assay on HS 578T breast, in the assay with SK-MEL-5 melanoma and in the assay with UACC-62 melanoma was more than 100 µM each time.

`N#Cc1nc2cc(Cl)c(Cl)cc2nc1-c1ccc(Cl)cc1`: the GI50 in the assay with HOP-62 NSCLC is 21 µM; in the assay on NCI/ADR-RES ovarian, more than 42.2 µM; in the assay on T-47D breast, more than 66.1 µM; in the assay on SF-539 CNS it was 46.2 µM; with NCI-H522 lung, 51.5 µM; with OVCAR-4 ovarian it was more than 100 µM. For the same compound, the GI50 with HL-60(TB) leukemia is more than 100 µM; in the assay on HS 578T breast it was 17.1 µM; in the assay on SK-MEL-5 melanoma, 44.3 µM; with UACC-62 melanoma, 33.2 µM. Also, the TGI in the assay on HOP-62 NSCLC was 41.6 µM; in the assay on NCI/ADR-RES ovarian it was more than 83.4 µM; in the assay on T-47D breast, more than 100 µM; with SF-539 CNS, more than 100 µM; in the assay with NCI-H522 lung, more than 100 µM; in the assay on OVCAR-4 ovarian it was more than 100 µM. Further, the TGI is more than 100 µM in the assay on HL-60(TB) leukemia, 70.2 µM with HS 578T breast, more than 100 µM in the assay with SK-MEL-5 melanoma and more than 70.9 µM with UACC-62 melanoma.

Turning to `C/C(=C1\C(=O)Nc2ccccc21)c1cccc(/C(C)=C2/C(=O)Nc3ccccc32)n1`, the GI50 was 15.5 µM with HOP-62 NSCLC; 4.93 µM with NCI/ADR-RES ovarian; 4.63 µM in the assay with T-47D breast; 2.49 µM in the assay with SF-539 CNS; 9.59 µM with NCI-H522 lung; 43 µM with OVCAR-4 ovarian. Further, the GI50 in the assay on HL-60(TB) leukemia was 16 µM; in the assay with HS 578T breast, 4.1 µM; with SK-MEL-5 melanoma, 5.67 µM; in the assay on UACC-62 melanoma it was 4.56 µM. Further, the TGI in the assay with HOP-62 NSCLC is 74.1 µM; in the assay with NCI/ADR-RES ovarian, 44.8 µM; in the assay on T-47D breast it was more than 100 µM; in the assay on SF-539 CNS it was 7.99 µM; in the assay on NCI-H522 lung, 99.5 µM; in the assay on OVCAR-4 ovarian it was more than 100 µM. In addition, the TGI with HL-60(TB) leukemia was more than 100 µM; in the assay on HS 578T breast it was more than 100 µM; in the assay on SK-MEL-5 melanoma it was 25.4 µM; in the assay with UACC-62 melanoma, 23.2 µM.

In the case of `COc1cccc(C2CC(C)(O)Oc3cc4c(cc32)OCO4)c1` (stereo not drawn), the TGI in the assay with HOP-62 NSCLC was 74.4 µM; in the assay on NCI/ADR-RES ovarian, 59.3 µM; in the assay with T-47D breast it was more than 100 µM; in the assay on NCI-H522 lung, 30.6 µM; with OVCAR-4 ovarian, more than 100 µM; in the assay with HL-60(TB) leukemia it was more than 100 µM. For the same compound, the TGI was 49.6 µM in the assay with HS 578T breast, more than 100 µM in the assay on SK-MEL-5 melanoma and more than 100 µM in the assay with UACC-62 melanoma.

For the compound `CCCCCCCCCCCC(c1ccccc1)[N+](C)(C)C` (stereo not drawn), the GI50 with HOP-62 NSCLC is 1.52 µM; in the assay with NCI/ADR-RES ovarian, more than 100 µM; in the assay with T-47D breast, 1.9 µM; with NCI-H522 lung, 0.294 µM; in the assay with OVCAR-4 ovarian, 1.13 µM; in the assay with HL-60(TB) leukemia, 0.291 µM. Further, the GI50 was 1.16 µM with HS 578T breast and 0.874 µM with SK-MEL-5 melanoma. The TGI is 3.07 µM in the assay on HOP-62 NSCLC; more than 100 µM with NCI/ADR-RES ovarian; 9.79 µM in the assay on T-47D breast; 1.97 µM in the assay with NCI-H522 lung; 4.05 µM in the assay with OVCAR-4 ovarian; 1.47 µM with HL-60(TB) leukemia. The TGI with HS 578T breast was 3.28 µM; with SK-MEL-5 melanoma, 2.11 µM.

In the case of `C=C1C(=O)O[C@@H]2C[C@@]3(C)CCC[C@H](C)C3=C[C@H]12` (tested in a mixture with another compound), the TGI in the assay on HOP-62 NSCLC is 7.74 µM; in the assay on NCI/ADR-RES ovarian, 5.2 µM; in the assay on T-47D breast, 3.18 µM; with SF-539 CNS it was 4.85 µM; with NCI-H522 lung it was 2.94 µM; with OVCAR-4 ovarian, 6.45 µM. Further, the TGI was found to be 17.3 µM with HS 578T breast, 3.9 µM in the assay with SK-MEL-5 melanoma and 6.94 µM with UACC-62 melanoma.

For `Oc1ccc(CCNc2nc3ccccc3c3[nH]c4ccccc4c23)cc1O`, the GI50 in the assay with HOP-62 NSCLC is 3.78 µM; in the assay on NCI/ADR-RES ovarian, 9.15 µM; in the assay on T-47D breast it was 14.2 µM; with SF-539 CNS it was 2.02 µM; with OVCAR-4 ovarian, 4.8 µM; in the assay on HL-60(TB) leukemia, 2.07 µM. Also, the GI50 is 8.28 µM in the assay with HS 578T breast, 3.2 µM with SK-MEL-5 melanoma and 3.86 µM in the assay with UACC-62 melanoma. For the same compound, the TGI with HOP-62 NSCLC was 13.5 µM; with NCI/ADR-RES ovarian, 32.2 µM; with T-47D breast it was 32.2 µM; in the assay with SF-539 CNS it was 3.6 µM; with OVCAR-4 ovarian it was 16.9 µM; in the assay on HL-60(TB) leukemia, 4.36 µM. For the same compound, the TGI with HS 578T breast is more than 100 µM; in the assay with SK-MEL-5 melanoma it was 11.5 µM; in the assay with UACC-62 melanoma, 13.4 µM.

As to `O=C(O)CN(CCN(CC(=O)O)CC(=O)O)CCN(CC(=O)O)CC(=O)O`, the GI50 is 1.98 µM with HOP-62 NSCLC; 3.1 µM in the assay with NCI/ADR-RES ovarian; 3.74 µM in the assay with T-47D breast; 2.86 µM in the assay on SF-539 CNS; 2.51 µM with OVCAR-4 ovarian; 2.12 µM with HL-60(TB) leukemia. Also, the GI50 is 2.09 µM in the assay on HS 578T breast, 2.92 µM in the assay on SK-MEL-5 melanoma and 3.35 µM in the assay with UACC-62 melanoma. For the same compound, the TGI was determined as 5.07 µM with HOP-62 NSCLC; 13.7 µM in the assay with NCI/ADR-RES ovarian; 14.5 µM with T-47D breast; 7.98 µM in the assay with SF-539 CNS; 7.51 µM in the assay with OVCAR-4 ovarian; 5.01 µM in the assay with HL-60(TB) leukemia. Further, the figures for the TGI in the assay with HS 578T breast, in the assay on SK-MEL-5 melanoma and with UACC-62 melanoma were 56.7 µM, 9.07 µM and 15.9 µM, respectively.

`CC(C)CC(NC(=O)C(O)C(N)Cc1ccccc1)C(=O)O` (stereo not drawn): the TGI with HOP-62 NSCLC, in the assay with NCI/ADR-RES ovarian, with T-47D breast, in the assay on SF-539 CNS, in the assay with OVCAR-4 ovarian and with HL-60(TB) leukemia was more than 100 µM throughout. Besides, the TGI with HS 578T breast, in the assay on SK-MEL-5 melanoma and in the assay with UACC-62 melanoma was more than 100 µM each time.

For `O=C(O)c1c2c(c(O)c3c1CN(C1CCCCC1)CO3)OCN(C1CCCCC1)C2`, the TGI with HOP-62 NSCLC is more than 100 µM; in the assay with NCI/ADR-RES ovarian it was more than 100 µM; in the assay with T-47D breast, more than 100 µM; in the assay with SF-539 CNS it was more than 100 µM; in the assay on NCI-H522 lung, 95.9 µM; in the assay with OVCAR-4 ovarian it was more than 100 µM. For the same compound, the TGI with HS 578T breast, in the assay with SK-MEL-5 melanoma and in the assay with UACC-62 melanoma was more than 100 µM throughout.

A word on the TGI: it is the concentration giving total growth inhibition. By GI50 is commonly meant the concentration giving 50% growth inhibition.
